≈ marks a conversion by molar mass, not a printed value.
Key:
Assay type in all cases: functional
[1] = tested on: Staphylococcus aureus; assay: Antibacterial activity against Staphylococcus aureus OC4172
[2] = tested on: Streptococcus pneumoniae; assay: Antibacterial activity against Mef(A) efflux pump containing Streptococcus pneumoniae OC4438
[3] = tested on: Streptococcus pneumoniae; assay: Antibacterial activity against erm(B) ribosomal methylase gene containing Streptococcus pneumoniae OC4051
[4] = tested on: Streptococcus pneumoniae; assay: Antibacterial activity against Streptococcus pneumoniae OC9132
[5] = tested on: Haemophilus influenzae; assay: Antibacterial activity against Haemophilus influenzae OC4882

Work on `CC[C@H]1OC(=O)[C@H](C)[C@@H](OC(=O)N(CC)CC)[C@H](C)[C@@H](O[C@@H]2O[C@H](C)C[C@H](N(C)C)[C@H]2O)[C@](C)(OC(=O)NC/C=C/c2ccc(-c3ncccn3)cc2)C[C@@H](C)C(=O)[C@H](C)[C@H]2NC(=O)O[C@@]21C` yielded an MIC [1] of 0.5 µg/mL (≈ 0.534 µM), an MIC [2] of 0.06 µg/mL (≈ 0.064 µM) and an MIC [3] of 0.12 µg/mL (≈ 0.128 µM). For the same compound, the MIC [4] was 0.06 µg/mL (≈ 0.064 µM) and the MIC [5] was 8 µg/mL (≈ 8.54 µM).

With `CC[C@H]1OC(=O)[C@H](C)[C@@H](OC(=O)N(C)C)[C@H](C)[C@@H](O[C@@H]2O[C@H](C)C[C@H](N(C)C)[C@H]2O)[C@](C)(OC(=O)NC/C=C/c2ccc(-c3ncccn3)cc2)C[C@@H](C)C(=O)[C@H](C)[C@H]2NC(=O)O[C@@]21C` the MIC [1] was 0.25 µg/mL (≈ 0.275 µM), the MIC [2] was 0.06 µg/mL (≈ 0.066 µM) and the MIC [3] was 0.25 µg/mL (≈ 0.275 µM). For the same compound, the MIC [4] was 0.03 µg/mL (≈ 0.033 µM) and the MIC [5] was 8 µg/mL (≈ 8.8 µM).

Work on `CC[C@H]1OC(=O)[C@H](C)[C@@H](OC(=O)NC2CCCCC2)[C@H](C)[C@@H](O[C@@H]2O[C@H](C)C[C@H](N(C)C)[C@H]2O)[C@](C)(OC(=O)NC/C=C/c2ccc(-c3ncccn3)cc2)C[C@@H](C)C(=O)[C@H](C)[C@H]2NC(=O)O[C@@]21C` yielded an MIC [1] of 1 µg/mL (≈ 1.04 µM), an MIC [2] of 0.25 µg/mL (≈ 0.26 µM) and an MIC [3] of 4 µg/mL (≈ 4.15 µM). It also gave an MIC [4] of 0.12 µg/mL (≈ 0.125 µM) and an MIC [5] of 16 µg/mL (≈ 16.6 µM).

In the case of `CC[C@H]1OC(=O)[C@H](C)[C@@H](O[C@H]2C[C@@](C)(OC)[C@@H](O)[C@H](C)O2)[C@H](C)[C@@H](O[C@@H]2O[C@H](C)C[C@H](N(C)C)[C@H]2O)[C@](C)(O)C[C@@H](C)C(=O)[C@H](C)[C@@H](O)[C@]1(C)O` [ERYTHROMYCIN], the MIC [1] is reported as 0.5 µg/mL (≈ 0.681 µM), the MIC [2] is reported as 4 µg/mL (≈ 5.45 µM) and the MIC [3] is reported as greater than 16 µg/mL. For the same compound, the MIC [4] was 0.06 µg/mL (≈ 0.0818 µM) and the MIC [5] was 8 µg/mL (≈ 10.9 µM).

In the case of `CC[C@H]1OC(=O)[C@H](C)C(=O)[C@H](C)[C@@H](O[C@@H]2O[C@H](C)C[C@H](N(C)C)[C@H]2O)[C@](C)(OC)C[C@@H](C)C(=O)[C@H](C)[C@H]2N(CCCCn3cnc(-c4cccnc4)c3)C(=O)O[C@]12C` [TELITHROMYCIN], the MIC [1] is reported as 0.25 µg/mL (≈ 0.308 µM), the MIC [2] is reported as 0.25 µg/mL (≈ 0.308 µM) and the MIC [3] is reported as 0.06 µg/mL (≈ 0.0739 µM). For the same compound, the MIC [4] was 0.03 µg/mL (≈ 0.0369 µM) and the MIC [5] was 2 µg/mL (≈ 2.46 µM).
